From patent US7728001B2 (priority 2004, dated 2010)
pKi: −log10 of the molar value. Like-named read-outs stand apart in the source and are kept apart here.

Columns and labels:
κ receptors = κ receptors (Homo sapiens, UniProt P41145); experiment: biochemical; assay type: binding
humans = details: cited from earlier work
[1] = target: serotonin 5-HT2A receptor (Homo sapiens, UniProt P28223); details: cited from earlier work
opioid receptors = assay type: biochemical
rhesus monkeys [2] = details: nonhuman primates, recent report; cited from earlier work
δ receptors = δ receptors (Homo sapiens, UniProt P41143); experiment: biochemical; assay type: binding
μ receptors = μ receptors (Homo sapiens, UniProt P35372); experiment: opioid receptor binding affinity, [^125I]IOXY as radioligand (μ); details: for pKi: [^125I]IOXY radioligand
rhesus monkeys [3] = experiment: behavioral / discriminative stimulus effects, generalization to U69,593; assay type: in vivo; parameters: generalization to U69,593: dose or concentration left out as unconfirmed
Description: In an effort to further understand the in vivo pharmacology of these derivatives, propionate 9 was evaluated for behavioral effects in nonhuman primates in a pilot study. […] Propionate 9 generalized to U69,593 in only one of two rhesus monkeys tested, up to the highest dose that could be administered ([…], s.c.).

Sequence of κ receptors (P41145 whole entry): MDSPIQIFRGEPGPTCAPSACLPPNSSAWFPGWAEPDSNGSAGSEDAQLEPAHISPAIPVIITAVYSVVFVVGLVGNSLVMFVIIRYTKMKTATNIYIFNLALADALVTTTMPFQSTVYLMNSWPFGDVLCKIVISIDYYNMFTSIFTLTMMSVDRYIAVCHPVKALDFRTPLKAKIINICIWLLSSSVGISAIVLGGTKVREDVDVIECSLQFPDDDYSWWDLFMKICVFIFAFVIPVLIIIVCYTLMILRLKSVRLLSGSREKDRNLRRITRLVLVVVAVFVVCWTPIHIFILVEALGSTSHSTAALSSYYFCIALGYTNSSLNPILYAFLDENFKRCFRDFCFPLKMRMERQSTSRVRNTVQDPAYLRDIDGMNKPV
Sequence of δ receptors (P41143 whole entry): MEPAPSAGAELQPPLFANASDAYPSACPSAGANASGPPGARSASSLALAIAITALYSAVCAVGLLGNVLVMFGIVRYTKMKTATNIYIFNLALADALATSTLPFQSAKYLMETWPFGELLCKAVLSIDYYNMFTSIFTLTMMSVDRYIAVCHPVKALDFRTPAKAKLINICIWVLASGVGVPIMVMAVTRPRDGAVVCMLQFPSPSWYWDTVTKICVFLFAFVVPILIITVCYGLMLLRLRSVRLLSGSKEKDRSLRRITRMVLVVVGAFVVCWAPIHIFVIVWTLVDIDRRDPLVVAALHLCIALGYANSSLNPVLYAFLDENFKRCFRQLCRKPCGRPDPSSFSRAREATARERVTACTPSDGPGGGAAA
Sequence of μ receptors (P35372 whole entry): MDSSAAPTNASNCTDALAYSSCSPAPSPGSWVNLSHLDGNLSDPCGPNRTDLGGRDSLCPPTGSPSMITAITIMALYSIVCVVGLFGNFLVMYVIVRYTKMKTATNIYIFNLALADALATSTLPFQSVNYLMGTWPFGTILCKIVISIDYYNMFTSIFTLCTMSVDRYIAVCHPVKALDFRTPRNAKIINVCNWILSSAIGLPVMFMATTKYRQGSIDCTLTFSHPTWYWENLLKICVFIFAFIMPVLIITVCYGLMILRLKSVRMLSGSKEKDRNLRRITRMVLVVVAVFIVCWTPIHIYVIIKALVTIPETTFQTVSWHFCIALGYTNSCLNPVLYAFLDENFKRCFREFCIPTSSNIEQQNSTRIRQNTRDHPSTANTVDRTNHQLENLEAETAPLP
Sequence of serotonin 5-HT2A receptor (P28223 whole entry): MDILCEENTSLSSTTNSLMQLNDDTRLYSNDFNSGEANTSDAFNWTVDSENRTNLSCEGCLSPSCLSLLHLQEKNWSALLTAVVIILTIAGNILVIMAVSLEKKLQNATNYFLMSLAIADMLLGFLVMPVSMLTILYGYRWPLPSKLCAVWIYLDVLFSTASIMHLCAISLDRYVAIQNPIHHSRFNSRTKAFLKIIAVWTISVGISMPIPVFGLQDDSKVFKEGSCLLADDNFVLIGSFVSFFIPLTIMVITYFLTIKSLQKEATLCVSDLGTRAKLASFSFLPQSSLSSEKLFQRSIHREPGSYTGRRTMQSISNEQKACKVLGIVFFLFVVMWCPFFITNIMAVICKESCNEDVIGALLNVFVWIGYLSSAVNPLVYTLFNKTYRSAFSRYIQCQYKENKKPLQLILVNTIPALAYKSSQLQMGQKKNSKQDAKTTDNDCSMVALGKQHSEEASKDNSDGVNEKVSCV

Compound: COC(=O)[C@@H]1C[C@H](OC(C)=O)[C@H](OC(C)=O)[C@H]2[C@@]1(C)CC[C@H]1C(=O)O[C@H](c3ccoc3)C[C@]21C [Compound 20, (2S,4aR,6aR,7R,9S,10R,10aS,10bR)-9,10-(diacetoxy)-2-(3-furanyl)dodecahydro-6a,10b-dimethyl-4-oxo-2H-naphtho[2,1-c]pyran-7-carboxylic acid methyl ester]
- fold loss/decrease in affinity at κ receptors compared to 1 (κ receptors): 340 fold
- pKi (κ receptors; read-out: Ki at κ receptors): 6.19

Compound: COC(=O)[C@@H]1C[C@H](OC(C)=O)C(=O)[C@H]2[C@@]1(C)CC[C@H]1C(=O)O[C@H](c3ccoc3)C[C@]21C [Compound 1, Salvinorin A]
- smoked dose producing profound hallucinations (humans): 200 to 500 µg
- activity at the serotonin 5-HT2A receptor [1]: no activity
- functional activity (opioid receptors; [^35S]GTPγS assay): agonists
- discriminative stimulus effect (rhesus monkeys [2]): discriminative stimulus effect similar to the high efficacy κ agonist U69,593

Compound: C=C(C)C(=O)O[C@H]1C[C@@H](C(=O)OC)[C@]2(C)CC[C@H]3C(=O)O[C@H](c4ccoc4)C[C@]3(C)[C@H]2C1=O [Compound 11, (2S,4aR,6aR,7R,9S,10aS,10bR)-9-(2-methylacryloyloxy)-2-(3-furanyl)-dodecahydro-6a,10b-dimethyl-4,10-dioxo-2H-naphtho[2,1-c]pyran-7-carboxylic acid methyl ester]
- pKi (κ receptors): 6.59
- fold increase in affinity, printed 'at κ receptors', compared to 10 (κ receptors): ~11 fold
- pKi (κ receptors; read-out: Ki at κ receptors): 7.38

Compound: COC(=O)[C@@H]1C[C@H](OC(=N)C(Cl)(Cl)Cl)C(=O)[C@H]2[C@@]1(C)CC[C@H]1C(=O)O[C@H](c3ccoc3)C[C@]21C [Compound 21, (2S,4aR,6aR,7R,9S,10aS,10bR)-9-(2,2,2-trichloroacetimidoyloxy)-2-(3-furanyl)-dodecahydro-6a,10b-dimethyl-4,10-dioxo-2H-naphtho[2,1-c]pyran-7-carboxylic acid methyl ester]
- pKi (δ receptors; read-out: Ki at δ receptors): 5.19
- fold loss/decrease in affinity at κ receptors compared to 1 (κ receptors): 34 fold
- pKi (κ receptors; read-out: Ki at κ receptors): 7.19

Compound: COC(=O)[C@@H]1C[C@H](OC(=O)c2ccccc2)C(=O)[C@H]2[C@@]1(C)CC[C@H]1C(=O)O[C@H](c3ccoc3)C[C@]21C [Compound 13, (2S,4aR,6aR,7R,9S,10aS,10bR)-9-(benzoyloxy)-2-(3-furanyl)-dodecahydro-6a,10b-dimethyl-4,10-dioxo-2H-naphtho[2,1-c]pyran-7-carboxylic acid methyl ester]
- functional activity (opioid receptors): agonists
- selectivity for μ opioid receptor (μ receptors): binds selectively to the μ opioid receptor
- pKi (μ receptors): 7.92
- fold loss/decrease in affinity at κ receptors compared to 1 (κ receptors): 47 fold
- pKi (κ receptors; read-out: Ki at κ receptors): 7.05

Compound: COC(=O)[C@@H]1C[C@H](OC(C)=O)C(=O)[C@H]2[C@@]1(C)CC[C@H]1C(=O)O[C@H]([C@]3(O)[C@H](OC)O[C@H](OC)[C@H]3O)C[C@]21C
- melting point: 272 to 274 °C

Compound: COC(=O)C(=O)O[C@H]1C[C@@H](C(=O)OC)[C@]2(C)CC[C@H]3C(=O)O[C@H](c4ccoc4)C[C@]3(C)[C@H]2C1=O [Compound 12, Oxalic acid methyl ester (2S,4aR,6aR,7R,9S,10aS,10bR)-7-carbomethoxy-2-(3-furanyl)dodecahydro-6a,10b-dimethyl-4,10-dioxo-2H-naphtho[2,1-c]pyran-9-yl ester]
- fold loss of affinity at κ receptors compared to 11 (κ receptors): 10 fold
- pKi (κ receptors; read-out: Ki at κ receptors): 6.37

Compound: COC(=O)[C@@H]1C[C@H](OC(=O)C(C)C)C(=O)[C@H]2[C@@]1(C)CC[C@H]1C(=O)O[C@H](c3ccoc3)C[C@]21C [Compound 10, (2S,4aR,6aR,7R,9S,10aS,10bR)-9-(isobutyryloxy)-2-(3-furanyl)-dodecahydro-6a,10b-dimethyl-4,10-dioxo-2H-naphtho[2,1-c]pyran-7-carboxylic acid methyl ester]
- pKi (κ receptors): 5.53
- fold reduction of affinity at κ receptors compared to 9 (κ receptors): approximately 10 fold
- pKi (κ receptors; read-out: Ki at κ receptors): 7.72

Compound: COC(=O)[C@@H]1C[C@H](O[Si](C)(C)C)C(=O)[C@H]2[C@@]1(C)CC[C@H]1C(=O)O[C@H](c3ccoc3)C[C@]21C [Compound 16, (2S,4aR,6aR,7R,9S,10aS,10bR)-9-(trimethylsilanyloxy)-2-(3-furanyl)-dodecahydro-6a,10b-dimethyl-4,10-dioxo-2H-naphtho[2,1-c]pyran-7-carboxylic acid methyl ester]
- fold loss/decrease in affinity at κ receptors compared to 1 (κ receptors): 847 fold
- pKi (κ receptors; read-out: Ki at κ receptors): 5.79

Compound: C=CCNC(=O)O[C@H]1C[C@@H](C(=O)OC)[C@]2(C)CC[C@H]3C(=O)O[C@H](c4ccoc4)C[C@]3(C)[C@H]2C1=O [Compound 23, (2S,4aR,6aR,7R,9S,10aS,10bR)-9-(allylcarbamoyloxy)-2-(3-furanyl)-dodecahydro-6a,10b-dimethyl-4,10-dioxo-2H-naphtho[2,1-c]pyran-7-carboxylic acid methyl ester]
- fold loss/decrease in affinity at κ receptors compared to 1 (κ receptors): ~300 fold
- pKi (κ receptors; read-out: Ki at κ receptors): 6.92

Compound: COC(=O)[C@@H]1C[C@H](OC(=O)c2cccnc2)C(=O)[C@H]2[C@@]1(C)CC[C@H]1C(=O)O[C@H](c3ccoc3)C[C@]21C [Compound 14, Nicotinic acid (2S,4aR,6aR,7R,9S,10aS,10bR)-7-carbomethoxy-2-(3-furanyl)dodecahydro-6a,10b-dimethyl-4,10-dioxo-2H-naphtho[2,1-c]pyran-9-yl ester]
- pKi (μ receptors): 7.14
- fold decrease in affinity at μ receptors compared to 13 (μ receptors; ratio of Ki vs. 13): 21 fold
- pKi (κ receptors; read-out: Ki at κ receptors): 5.71

Compound: COC(=O)[C@@H]1C[C@H](OC(=O)Nc2ccccc2)C(=O)[C@H]2[C@@]1(C)CC[C@H]1C(=O)O[C@H](c3ccoc3)C[C@]21C [Compound 22, (2S,4aR,6aR,7R,9S,10aS,10bR)-9-(phenylcarbamoyloxy)-2-(3-furanyl)-dodecahydro-6a,10b-dimethyl-4,10-dioxo-2H-naphtho[2,1-c]pyran-7-carboxylic acid methyl ester]
- pKi (δ receptors; read-out: Ki at δ receptors): 6.64
- pKi (μ receptors): 7.80
- fold loss/decrease in affinity at κ receptors compared to 1 (κ receptors): 49 fold
- pKi (κ receptors; read-out: Ki at κ receptors): 7.03

Compound: COC(=O)[C@@H]1C[C@H](O)[C@H](O)[C@@H]2[C@@]3(C)C[C@@H](c4ccoc4)OC(=O)[C@H]3CC[C@]21C [Compound 19, (2S,4aS,6aR,7R,9S,10R,10aS,10bR)-9,10-(dihydroxy)-2-(3-furanyl)dodecahydro-6a,10b-dimethyl-4-oxo-2H-naphtho[2,1-c]pyran-7-carboxylic acid methyl ester]
- pKi (δ receptors): ~5.00
- pKi (μ receptors): ~5.00
- pKi (κ receptors): ~5.00

Compound: COC(=O)[C@@H]1C[C@H](O)[C@H](O)[C@H]2[C@@]1(C)CC[C@H]1C(=O)O[C@H](c3ccoc3)C[C@]21C [Compound 18, (2S,4aR,6aR,7R,9S,10R,10aS,10bR)-9,10-(dihydroxy)-2-(3-furanyl)dodecahydro-6a,10b-dimethyl-4-oxo-2H-naphtho[2,1-c]pyran-7-carboxylic acid methyl ester]
- affinity at δ receptors (δ receptors): low affinity
- affinity at μ receptors (μ receptors): low affinity

Compound: COC(=O)[C@@H]1C[C@H](OC(C)=O)C(=O)[C@H]2[C@@]1(C)CC[C@H]1C(=O)O[C@H]([C@]3(O)[C@@H](OC)O[C@@H](OC)[C@H]3O)C[C@]21C
- melting point: 151 to 153 °C

Compound: CCC(=O)O[C@H]1C[C@@H](C(=O)OC)[C@]2(C)CC[C@H]3C(=O)O[C@H](c4ccoc4)C[C@]3(C)[C@H]2C1=O [Compound 9, (2S,4aR,6aR,7R,9S,10aS,10bR)-9-(propionyloxy)-2-(3-furanyl)dodecahydro-6a,10b-dimethyl-4,10-dioxo-2H-naphtho[2,1-c]pyran-7-carboxylic acid methyl ester]
- functional activity (opioid receptors): agonists
- behavioral effect (rhesus monkeys [3]; nonhuman primates, pilot study, preliminary results): partial κ agonist
- generalization to U69,593 (rhesus monkeys [3]; rhesus monkeys, up to highest dose, s.c.): one of two
- pKi (κ receptors; read-out: Ki at κ receptors): 8.74

Compound: COC(=O)[C@@H]1C[C@H](OS(C)(=O)=O)C(=O)[C@H]2[C@@]1(C)CC[C@H]1C(=O)O[C@H](c3ccoc3)C[C@]21C [Compound 15, (2S,4aR,6aR,7R,9S,10aS,10bR)-9-(methanesulfonyloxy)-2-(3-furanyl)-dodecahydro-6a,10b-dimethyl-4,10-dioxo-2H-naphtho[2,1-c]pyran-7-carboxylic acid methyl ester]
- functional activity (opioid receptors): agonists
- pKi (κ receptors; read-out: Ki at κ receptors): 8.64
